How the values were obtained:
[1] = molecular target: T1, Neuropeptide Y receptor type 2 (Homo sapiens, UniProt P49146); assay type: cell membranes, Membrane; conditions: kan-ts; note: in other assays of this panel Not Active means under 50% inhibition at 10 µM
T1 sequence (P49146 whole entry): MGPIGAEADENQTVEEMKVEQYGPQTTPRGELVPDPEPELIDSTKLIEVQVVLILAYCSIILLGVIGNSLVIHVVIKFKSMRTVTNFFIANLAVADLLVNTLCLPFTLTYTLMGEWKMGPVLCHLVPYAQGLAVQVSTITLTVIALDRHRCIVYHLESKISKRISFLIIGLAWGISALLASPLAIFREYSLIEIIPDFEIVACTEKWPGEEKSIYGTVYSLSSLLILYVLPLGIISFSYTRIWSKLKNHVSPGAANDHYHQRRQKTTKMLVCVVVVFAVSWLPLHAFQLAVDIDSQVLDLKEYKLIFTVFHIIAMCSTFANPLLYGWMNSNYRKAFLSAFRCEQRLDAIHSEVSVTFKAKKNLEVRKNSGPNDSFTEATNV

[2] = molecular target: Sodium-dependent dopamine transporter (Homo sapiens, UniProt Q01959); test: DRUGMATRIX: Dopamine Transporter radioligand binding (ligand: [125I] RTI-55); assay type: cell membranes, CHO-K1, Membrane; conditions: Not Active = under 50% inhibition at 10 µM; for Ki: read-out: Ki
[3] = molecular target: Aldo-keto reductase family 1 member B1 (Rattus norvegicus, UniProt P07943); test: biochemical; assay type: tissue-based, Lens of camera-type eye;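 note: inhibition of aldose reductase enzyme activity, measured with DL-glyceraldehyde as the substrate; in other assays of this panel Not Active means under 50% inhibition at 10 µM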
[4] = DRUGMATRIX: Leukotriene, BLT (LTB4) radioligand binding (ligand: [3H]LTB4); assay type: cell membranes, Membrane; conditions: u-937; Not Active = under 50% inhibition at 10 µM
[5] = molecular target: T2, C-C chemokine receptor type 4 (Homo sapiens, UniProt P51679); assay type: cell membranes, Membrane; conditions: chem-1; note: in other assays of this panel Not Active means under 50% inhibition at 10 µM
T2 sequence (P51679 whole entry): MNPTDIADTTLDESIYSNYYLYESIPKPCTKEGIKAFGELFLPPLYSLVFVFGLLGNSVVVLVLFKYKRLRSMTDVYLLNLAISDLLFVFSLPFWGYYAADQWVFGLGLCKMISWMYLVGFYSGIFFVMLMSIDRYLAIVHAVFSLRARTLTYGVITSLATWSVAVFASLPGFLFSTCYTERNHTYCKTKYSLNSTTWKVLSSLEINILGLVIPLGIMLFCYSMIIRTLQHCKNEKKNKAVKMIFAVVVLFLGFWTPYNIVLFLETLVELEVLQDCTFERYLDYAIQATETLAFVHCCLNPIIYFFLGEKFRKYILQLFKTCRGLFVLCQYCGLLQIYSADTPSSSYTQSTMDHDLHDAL

[6] = molecular target: Mu-type opioid receptor (Homo sapiens, UniProt P35372); test: DRUGMATRIX: Opiate mu (OP3, MOP) radioligand binding (ligand: [3H] Diprenorphine); assay type: cell membranes, CHO-K1, Membrane; conditions: Not Active = under 50% inhibition at 10 µM
[7] = molecular target: cGMP-specific 3',5'-cyclic phosphodiesterase (Homo sapiens, UniProt O76074); test: DRUGMATRIX: Phosphodiesterase PDE5 enzyme inhibition (substrate: [3H]cGMP + cGMP); assay type: tissue-based; conditions: platelet; Not Active = under 50% inhibition at 10 µM

Sequence of Mu-type opioid receptor (P35372 whole entry): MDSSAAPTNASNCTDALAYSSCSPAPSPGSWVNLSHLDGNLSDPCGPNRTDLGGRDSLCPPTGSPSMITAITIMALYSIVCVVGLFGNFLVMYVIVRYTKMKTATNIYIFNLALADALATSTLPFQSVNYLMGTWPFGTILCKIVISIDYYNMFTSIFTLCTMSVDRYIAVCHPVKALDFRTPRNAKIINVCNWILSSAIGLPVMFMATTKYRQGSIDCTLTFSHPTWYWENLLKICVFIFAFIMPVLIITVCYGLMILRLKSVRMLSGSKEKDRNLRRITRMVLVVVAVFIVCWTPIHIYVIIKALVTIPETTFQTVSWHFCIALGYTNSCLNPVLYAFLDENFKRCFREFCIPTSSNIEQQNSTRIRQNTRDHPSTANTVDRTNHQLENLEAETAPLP
Sequence of Sodium-dependent dopamine transporter (Q01959 whole entry): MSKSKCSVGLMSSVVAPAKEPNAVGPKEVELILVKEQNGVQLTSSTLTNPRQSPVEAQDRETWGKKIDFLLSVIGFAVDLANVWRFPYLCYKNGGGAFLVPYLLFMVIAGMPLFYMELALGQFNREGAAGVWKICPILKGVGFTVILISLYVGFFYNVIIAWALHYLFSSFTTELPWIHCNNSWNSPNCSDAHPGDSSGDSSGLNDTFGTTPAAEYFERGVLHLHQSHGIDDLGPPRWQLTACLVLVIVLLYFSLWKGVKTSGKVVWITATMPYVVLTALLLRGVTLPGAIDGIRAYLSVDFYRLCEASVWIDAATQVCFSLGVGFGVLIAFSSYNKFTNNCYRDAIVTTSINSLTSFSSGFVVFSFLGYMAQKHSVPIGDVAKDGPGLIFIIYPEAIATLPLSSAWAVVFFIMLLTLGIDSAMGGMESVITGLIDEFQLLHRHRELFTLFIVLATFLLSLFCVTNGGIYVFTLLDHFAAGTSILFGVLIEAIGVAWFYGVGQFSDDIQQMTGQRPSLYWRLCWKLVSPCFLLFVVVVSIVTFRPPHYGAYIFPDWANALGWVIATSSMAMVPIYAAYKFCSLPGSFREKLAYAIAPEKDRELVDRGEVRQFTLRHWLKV

Row | SMILES | IC50 [1] | IC50 ([2]; cho-k1) | IC50 [3] | IC50 [4] | Ki [4] | IC50 [5] | IC50 ([6]; cho-k1) | IC50 [7] | Ki [6] [µM] | IC50 ([6]; read-out: IC50) [µM] | IC50 ([3]; read-out: IC50) [µM] | IC50 ([2]; read-out: IC50) [µM] | Ki [2] [µM]
1 | COc1ccccc1OCC(O)CO (configuration not stated) [GUAIFENESIN] | Not Active | Not Active | Not Active | Not Active | Not Active | Not Active | Not Active | Not Active |  |  |  |  | 
2 | C=C1/C(=C\C=C2/CCC[C@]3(C)[C@@H]([C@H](C)CCCC(C)C)CC[C@@H]23)C[C@@H](O)C[C@@H]1O [ALFACALCIDOL] | Not Active | Not Active | Not Active | Not Active | Not Active | Not Active | Not Active | Not Active |  |  |  |  | 
3 | C[C@]12CCC(=O)C=C1CC[C@@H]1[C@@H]2[C@@H](O)C[C@@]2(C)[C@H]1CC[C@]2(O)C(=O)CO [HYDROCORTISONE] | Not Active | Not Active | Not Active | Not Active | Not Active | Not Active | Not Active | Not Active |  |  |  |  | 
4 | Nc1nc(N)nc(NC2CC2)n1 [CYROMAZINE] | Not Active | Not Active | Not Active | Not Active | Not Active | Not Active |  | Not Active |  |  |  |  | 
5 | CN(C(=O)CCCOc1ccc2[nH]c(=O)ccc2c1)C1CCCCC1 [CILOSTAMIDE] | Not Active | Not Active | Not Active | Not Active | Not Active | Not Active | Not Active | Not Active |  |  |  |  | 
6 | CNC(=C[N+](=O)[O-])NCCSCc1csc(CN(C)C)n1 [NIZATIDINE] | Not Active | Not Active | Not Active | Not Active | Not Active | Not Active | Not Active | Not Active |  |  |  |  | 
7 | CC(=O)O[C@]1(C(C)=O)CC[C@H]2[C@@H]3C=C(Cl)C4=CC(=O)[C@@H]5C[C@@H]5[C@]4(C)[C@H]3CC[C@@]21C [CYPROTERONE ACETATE] | Not Active | Not Active | Not Active | Not Active | Not Active | Not Active |  | Not Active | 0.886 | 2.18 |  |  | 
8 | Nc1nc(Cl)nc2c1ncn2[C@H]1C[C@H](O)[C@@H](CO)O1 [CLADRIBINE] | Not Active | Not Active | Not Active | Not Active | Not Active | Not Active | Not Active | Not Active |  |  |  |  | 
9 | CC(C)(Sc1cc(C(C)(C)C)c(O)c(C(C)(C)C)c1)Sc1cc(C(C)(C)C)c(O)c(C(C)(C)C)c1 [PROBUCOL] | Not Active | Not Active | Not Active | Not Active | Not Active | Not Active | Not Active | Not Active |  |  |  |  | 
10 | Cc1cccc(Nc2ccccc2C(=O)O)c1C [MEFENAMIC ACID] | Not Active | Not Active | Not Active | Not Active | Not Active | Not Active | Not Active | Not Active |  |  |  |  | 
11 | N[C@@H](Cc1ccc(F)cc1)C(=O)O | Not Active | Not Active | Not Active | Not Active | Not Active | Not Active | Not Active | Not Active |  |  |  |  | 
12 | O=C(/C=C/c1ccc(O)c(O)c1)OCCc1ccccc1 [CAFFEIC ACID PHENETHYL ESTER] | Not Active | Not Active |  | Not Active | Not Active | Not Active | Not Active | Not Active |  |  | 1.41 |  | 
13 | Oc1ccccc1O [CATECHOL] | Not Active | Not Active | Not Active | Not Active | Not Active | Not Active | Not Active | Not Active |  |  |  |  | 
14 | [N-]=[N+]=CC(=O)OC[C@H](N)C(=O)O [AZASERINE] | Not Active | Not Active | Not Active | Not Active | Not Active | Not Active | Not Active | Not Active |  |  |  |  | 
15 | C#C[C@]1(O)CC[C@H]2[C@@H]3CCC4=Cc5oncc5C[C@]4(C)[C@H]3CC[C@@]21C [DANAZOL] | Not Active |  | Not Active | Not Active | Not Active | Not Active |  | Not Active | 5.72 | 14.1 |  | 6.84 | 5.44
16 | COc1ccc2cc(CCC(C)=O)ccc2c1 [NABUMETONE] | Not Active | Not Active | Not Active | Not Active | Not Active | Not Active | Not Active | Not Active |  |  |  |  | 
17 | Cc1c(N(C)CS(=O)(=O)[O-])c(=O)n(-c2ccccc2)n1C.[Na+] [DIPYRONE SODIUM] | Not Active | Not Active | Not Active | Not Active | Not Active | Not Active | Not Active | Not Active |  |  |  |  | 
18 | CC[C@]1(O)CC[C@H]2[C@@H]3CCC4=CCCC[C@@H]4[C@H]3CC[C@@]21C | Not Active | Not Active | Not Active | Not Active | Not Active | Not Active | Not Active | Not Active |  |  |  |  | 
19 | COc1ccc(Cc2nccc3cc(OC)c(OC)cc23)cc1OC [PAPAVERINE] | Not Active | Not Active | Not Active | Not Active | Not Active | Not Active |  | Not Active |  |  |  |  | 
20 | C#C[C@]1(O)CC[C@H]2[C@@H]3CCc4cc(O)ccc4[C@H]3CC[C@@]21C [ETHINYL ESTRADIOL] | Not Active |  | Not Active | Not Active | Not Active | Not Active |  | Not Active | 10.9 | 26.8 |  | 0.559 | 0.444
21 | CC(C)C[C@H]1C(=O)N2CCC[C@H]2[C@]2(O)O[C@](NC(=O)[C@@H]3C=C4c5cccc6[nH]c(Br)c(c56)C[C@H]4N(C)C3)(C(C)C)C(=O)N12 [BROMOCRIPTINE] | Not Active | Not Active | Not Active | Not Active | Not Active | Not Active |  | Not Active |  |  |  |  | 
22 | CCOC(=O)[C@H](CCc1ccccc1)N[C@@H](C)C(=O)N1CCC[C@H]1C(=O)O | Not Active | Not Active | Not Active | Not Active | Not Active | Not Active | Not Active | Not Active |  |  |  |  | 
23 | C[C@@H]1CC[C@H]2[C@@H](C)C(=O)O[C@@H]3O[C@@]4(C)CC[C@@H]1[C@]32OO4 [ARTEMISININ] | Not Active | Not Active | Not Active | Not Active | Not Active | Not Active | Not Active | Not Active |  |  |  |  | 
24 | CN1C(=O)CN=C(c2ccccc2)c2cc(Cl)ccc21 [DIAZEPAM] | Not Active | Not Active | Not Active | Not Active | Not Active | Not Active | Not Active | Not Active |  |  |  |  | 
25 | O=C(O)c1cccnc1 [NIACIN] | Not Active | Not Active | Not Active | Not Active | Not Active | Not Active | Not Active | Not Active |  |  |  |  | 
